According to paper PMC8837635, “Structural and functional analyses explain Pea KAI2 receptor diversity and reveal stereoselective catalysis during signal perception” (Communications Biology, 2022):

What was measured:
AtD14 = biological target: T1, AtD14 (Arabidopsis thaliana, UniProt Q9SQR3); assay: hydrolysis by purified protein, UPLC-UV; format: biochemical
T1 construct: gene D14
T1 sequence (Q9SQR3 1-267): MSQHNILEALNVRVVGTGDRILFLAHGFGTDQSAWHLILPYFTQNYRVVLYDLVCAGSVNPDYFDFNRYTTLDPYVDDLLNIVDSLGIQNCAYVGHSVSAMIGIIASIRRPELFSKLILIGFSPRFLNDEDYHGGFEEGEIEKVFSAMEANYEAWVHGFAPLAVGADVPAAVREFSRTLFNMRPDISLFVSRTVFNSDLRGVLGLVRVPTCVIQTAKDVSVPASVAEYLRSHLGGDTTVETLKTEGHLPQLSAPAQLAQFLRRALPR

PsKAI2A = biological target: T2, PsKAI2A (Lathyrus oleraceus, UniProt A0A9D4YJ13); assay: intrinsic tryptophan fluorescence Kd; hydrolysis by UPLC; MS covalent adduct; format: binding
T2 construct: gene KIW84_024963; PsKAI2A.2 (272 aa)
T2 sequence (A0A9D4YJ13 1-264 limits assumed): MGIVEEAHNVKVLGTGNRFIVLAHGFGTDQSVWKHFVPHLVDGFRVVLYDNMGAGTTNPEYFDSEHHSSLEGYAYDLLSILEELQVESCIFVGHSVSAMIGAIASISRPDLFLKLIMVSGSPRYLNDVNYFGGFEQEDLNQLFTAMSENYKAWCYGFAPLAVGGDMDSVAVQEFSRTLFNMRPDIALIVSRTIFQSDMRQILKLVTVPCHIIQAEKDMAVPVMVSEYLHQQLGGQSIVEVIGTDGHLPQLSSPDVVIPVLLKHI

PsKAI2B [1] = biological target: T3, PsKAI2B (Lathyrus oleraceus, UniProt A0A8X6EGX8); assay: intrinsic tryptophan fluorescence Kd; DSF shift; hydrolysis by UPLC; MS covalent adduct; format: binding
T3 sequence (A0A8X6EGX8 1-270): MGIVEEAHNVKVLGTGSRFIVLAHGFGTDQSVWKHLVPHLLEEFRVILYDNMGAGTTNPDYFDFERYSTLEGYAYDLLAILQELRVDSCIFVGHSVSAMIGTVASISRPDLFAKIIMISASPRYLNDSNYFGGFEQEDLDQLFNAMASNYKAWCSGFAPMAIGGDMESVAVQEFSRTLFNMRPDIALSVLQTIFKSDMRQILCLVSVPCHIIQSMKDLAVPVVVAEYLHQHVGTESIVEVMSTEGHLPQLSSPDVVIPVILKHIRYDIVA

RMS3 = biological target: T4, RMS3 (Lathyrus oleraceus, UniProt A0A109QYD3); assay: hydrolysis by purified protein, UPLC-UV; format: biochemical
T4 sequence (A0A109QYD3 1-267): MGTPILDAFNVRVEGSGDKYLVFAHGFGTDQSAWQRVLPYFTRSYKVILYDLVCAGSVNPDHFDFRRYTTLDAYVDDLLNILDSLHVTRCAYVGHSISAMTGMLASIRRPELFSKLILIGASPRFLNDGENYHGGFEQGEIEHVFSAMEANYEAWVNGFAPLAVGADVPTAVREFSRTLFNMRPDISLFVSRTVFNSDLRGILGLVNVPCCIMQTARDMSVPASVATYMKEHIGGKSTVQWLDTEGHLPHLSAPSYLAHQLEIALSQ

PsKAI2B [2] = biological target: T3, PsKAI2B; assay: co-crystal structure with (–)-GR24 at […] Å; hydrolysis product trapped in catalytic site; MS +[…] Da adduct on H246; format: binding

Compound | hydrolysis by purified protein, UPLC-UV (AtD14) | Kd (PsKAI2A) | Kd (PsKAI2B [1]) | hydrolysis by purified protein, UPLC-UV (RMS3) | co-crystal structure with (-)-GR24 at 2.0 Å; hydrolysis product trapped in catal (PsKAI2B [2])
CC1=C[C@@H](O/C=C2/C(=O)O[C@H]3c4ccccc4C[C@@H]23)OC1=O [(–)-GR24] | AtD14 and PsRMS3 (Pisum D14) similarly bind and hydrolyze both the isolated (–)- and (+)-GR24 stereoisomers | 115 ± 9.87 µM | 89.4 ± 12.1 µM | AtD14 and PsRMS3 (Pisum D14) similarly bind and hydrolyze both the isolated (–)- and (+)-GR24 stereoisomers | –
CC1=CC(O)OC1=O [D-OH, 5-hydroxy-3-methylbutenolide] | – | – | – | – | 5-hydroxy-3-methylbutenolide (D-OH ring), resulting from the (–)-GR24 cleavage, is trapped in the catalytic site
